Laboratory results reported in PubChem BioAssay (NCI).
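Where inhibition never reached the appropriate level, the endpoint shown equals the highest concentration tested. Otherwise, values were interpolated linearly from a five-concentration, 48-hour dose response in 96-well plates. The concentration for 50% growth inhibition is given as GI50. At the TGI there is no net growth.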

Legend:
Experiment in all cases: NCI-60 cell line screen, 48 h
786-0 renal = test system: 786-0 renal
A498 renal = test system: A498 renal
A549 NSCLC = test system: A549 NSCLC
ACHN renal = test system: ACHN renal
BT-549 breast = test system: BT-549 breast
CAKI-1 renal = test system: CAKI-1 renal
COLO 205 colon = test system: COLO 205 colon
DU-145 prostate = test system: DU-145 prostate
EKVX NSCLC = test system: EKVX NSCLC
HCC-2998 colon = test system: HCC-2998 colon
HCT-116 colon = test system: HCT-116 colon
HCT-15 colon = test system: HCT-15 colon
HL-60(TB) leukemia = test system: HL-60(TB) leukemia
HOP-62 NSCLC = test system: HOP-62 NSCLC
HOP-92 NSCLC = test system: HOP-92 NSCLC
HS 578T breast = test system: HS 578T breast
HT29 colon = test system: HT29 colon
K-562 leukemia = test system: K-562 leukemia
KM12 colon = test system: KM12 colon
LOX IMVI melanoma = test system: LOX IMVI melanoma
M14 melanoma = test system: M14 melanoma
MALME-3M melanoma = test system: MALME-3M melanoma
MCF7 breast = test system: MCF7 breast
MDA-MB-231 breast = test system: MDA-MB-231 breast
MDA-MB-435 = test system: MDA-MB-435
MOLT-4 leukemia = test system: MOLT-4 leukemia
NCI-H226 lung = test system: NCI-H226 lung
NCI-H23 lung = test system: NCI-H23 lung

Question: What does the source list for `CCN(CC)CCCNCc1cc(-c2ccccc2)nc2cc(Cl)ccc12`?
Answer: GI50 (786-0 renal): 2.41 µM; TGI (786-0 renal): 8.77 µM; GI50 (A498 renal): 2.36 µM; TGI (A498 renal): 6.14 µM; GI50 (A549 NSCLC): 7.02 µM; TGI (A549 NSCLC): 21.2 µM; GI50 (ACHN renal): 3.74 µM; TGI (ACHN renal): 14.2 µM; GI50 (BT-549 breast): 8.65 µM; TGI (BT-549 breast): 21.6 µM; GI50 (CAKI-1 renal): 2.35 µM; TGI (CAKI-1 renal): 11.2 µM; GI50 (COLO 205 colon): 1.74 µM; TGI (COLO 205 colon): 3.27 µM; GI50 (DU-145 prostate): 11.7 µM; TGI (DU-145 prostate): 24.5 µM; GI50 (EKVX NSCLC): 7.85 µM; TGI (EKVX NSCLC): 24.3 µM; GI50 (HCC-2998 colon): 1.94 µM; TGI (HCC-2998 colon): 3.89 µM; GI50 (HCT-116 colon): 1.46 µM; TGI (HCT-116 colon): 4.28 µM; GI50 (HCT-15 colon): 3.1 µM; TGI (HCT-15 colon): 10.2 µM; GI50 (HL-60(TB) leukemia): 1.78 µM; TGI (HL-60(TB) leukemia): 4.19 µM; GI50 (HOP-62 NSCLC): 5.54 µM; TGI (HOP-62 NSCLC): 19.3 µM; GI50 (HOP-92 NSCLC): 1.16 µM; TGI (HOP-92 NSCLC): 5.02 µM; GI50 (HS 578T breast): 2.01 µM; TGI (HS 578T breast): 5.29 µM; GI50 (HT29 colon): 2.2 µM; TGI (HT29 colon): 5.39 µM; GI50 (K-562 leukemia): 1.94 µM; TGI (K-562 leukemia): 6.61 µM; GI50 (KM12 colon): 2.09 µM; TGI (KM12 colon): 4.82 µM; GI50 (LOX IMVI melanoma): 1.87 µM; TGI (LOX IMVI melanoma): 4.27 µM; GI50 (M14 melanoma): 1.92 µM; TGI (M14 melanoma): 3.63 µM; GI50 (MALME-3M melanoma): 1.63 µM; TGI (MALME-3M melanoma): 3.49 µM; GI50 (MCF7 breast): 1.69 µM; TGI (MCF7 breast): 4.06 µM; GI50 (MDA-MB-231 breast): 1.45 µM; TGI (MDA-MB-231 breast): 4.24 µM; GI50 (MDA-MB-435): 1.84 µM; TGI (MDA-MB-435): 3.81 µM; GI50 (MOLT-4 leukemia): 2.12 µM; TGI (MOLT-4 leukemia): 5.46 µM; GI50 (NCI-H226 lung): 11.8 µM; TGI (NCI-H226 lung): 27.3 µM; GI50 (NCI-H23 lung): 12.5 µM; TGI (NCI-H23 lung): 27.3 µM
